Source: patent publication US20250281424A1 (New York Blood Center, Inc, priority 2020, published 2025)

Target: T1, human PF4 (Homo sapiens, UniProt P02776)
T1 construct: PF4 is a 70 amino acid, lysine-rich 7.8 kDa platelet-specific protein; made in house; host or cells: Escherichia coli BL21DE3 pLysS (pT7-7) and/or Drosophila S2 cells
T1 sequence (P02776 32-101): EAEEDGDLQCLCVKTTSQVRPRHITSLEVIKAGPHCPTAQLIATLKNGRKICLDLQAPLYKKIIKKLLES
Experiment: Inhibition of PF4 tetramer formation (BS3 cross-linking, SDS-PAGE)
Assay type: biochemical
Details: for inhibition at 5 µM: 5 μM inhibitor; for inhibition at 5 µM / inhibition at 10 µM / inhibition at 1 µM / inhibition at 3 µM: read-out: % inhibition of PF4 tetramer formation at single concentration of inhibitor; for inhibition at 10 µM: 10 μM inhibitor (column A); for IC50: read-out: IC50 of PF4 tetramer formation inhibition; for inhibition at 1 µM: 1 μM inhibitor; for inhibition at 3 µM: 3 μM inhibitor (column A)
Description: Compounds of Examples 1-38, 65-301, 303, 305, 307, 309, 311, 313, 314, 316, and 318-404 were tested using SDS PAGE analysis of BS3 crosslinked PF4 for their ability to prevent PF4 tetramer formation. […] See, Suvarna et al., Throm. Res, 122:211-220 (2008), which is hereby incorporated by reference, at least for a detailed description of this technique.
cDNA encoding human PF4 was cloned into the plasmid μMT/BiPN5-His A (Invitrogen Corp., Carlsbad CA) for expression in the Drosophila Expression System (Invitrogen, Carlsbad, CA). Cloning was performed using Bg1 II and Age I cloning sites. A hexanucleotide encoding Bg1 II site was then eliminated by site-directed mutagenesis so that the expressed protein contained full-length wild type (wt) PF4 or PF4^K50E with an identical sequence as their counterparts expressed in E. coli. See, method described in Sachais et al (Sachais, B. S. et al. (2012). Blood 119(25): 5955-5961). PF4 expression was induced by adding copper sulfate (0.5 mM). The induced S2 cells were incubated in serumfree Insect-Xpress™ media (Lonza, Walkersville, MD) for 3-5 days; supernatants were collected, sodium azide (0.02% final concentration) and EDTA (2.5 mM final concentration) were added, and the media were filtered through an Express® PLUS 0.22 μm filter (Millipore Corp., Billerica, MA).
Wild-type (WT) human PF4 in the pT7-7 vector (Novagen, Madison, WI) was expressed in the Escherichia coli strain BL21DE30 pLysS (Stratagene, La Jolla, CA), and purified and characterized as described by Rauova et al. (Rauova, L. et al. (2006). Blood 107(6): 2346-2353) and Park et al., (Blood, 75:1290-1295 (1990)), which are hereby incorporated by reference. Briefly, recombinant protein was isolated from the supernatant of the bacterial lysate by affinity chromatography using a HiTrap high-performance (HP) affinity column. WT PF4 was purified from the media on a heparin HiTrap® column on an ÄTKAPrime™ system (GE Healthcare) at 4° C. in Tris (10 mM), EDTA (1 mM), and pH 8 buffer. Media was loaded in buffer containing NaCl (0.5 M) and PF4 was eluted at 1.8 M NaCl using a linear gradient. Fractions containing purified PF4 as detected by silver staining of 12% NuPAGE Bis-Tris gels (Invitrogen) were pooled, concentrated and buffer exchanged into 50 mM HEPES, 0.5 M NaCl, pH—7.2 using an Amicon® Ultra centrifugal filter (3K NMWL, Millipore Corp). Protein was quantified using a BCA assay.
Compounds of Examples 1-38, 65-196, and 209-228 were then tested for their ability to inhibit PF4 tetramer formation using a cross-linking assay as described in Rauova cited above. Specifically, hPF4 (10 μg/ml) in phosphate-buffered saline (PBS) was incubated at 37° C. for 15 min in the absence of the antagonistic compounds (control sample) and presence of compounds. Cross-linking and SDS-PAGE analysis were then performed as described in “Analysis of PF4 multimerization” of Rauova. The relative amounts of PF4 in each of the monomer, dimer, trimer and tetramer form were calculated by analyzing the samples on a 12% SDS-polyacrylamide gel under reducing conditions. Bands were quantified using the Kodak ID Image Analysis system (Kodak, Rochester, NY). The SigmaMarker™ reagent served as the molecular weight standard. Data was compiled and bar graphed as % PF4 for the tetramer, trimer, dimer, and monomer as a function of concentration for the test and control samples.
This experiment was performed in a manner similar to experiment 1, but PF4 (10 μg/ml) in PBS was independently incubated with compounds of Examples 1-38, 65-196, and 209-228 for 60 min at room temperature, followed by the addition of cross-linking reagent bis(sulfosuccinimidyl)suberate (0.2 mM) for 30 min at room temperature. The reaction was stopped by adding NuPAGE® lithium dodecyl sulfate (LDS) sample buffer, and denatured by heating to 70° C. for 10 min according to the manufacturer's instructions. […]

| SMILES | IC50 [µM] | inhibition at 5 µM [%] | inhibition at 10 µM [%] | inhibition at 1 µM [%] | inhibition at 3 µM [%] |
| --- | --- | --- | --- | --- | --- |
| CC(C)(C)OC(=O)N1CCOC(C(=O)C2C(=O)c3ccc(S(=O)(=O)c4ccc5c(c4)C(=O)C(C(=O)C4CN(C(=O)OC(C)(C)C)CCO4)C5=O)cc3C2=O)C1 (stereo not shown) [Example 233] | – | – | – | 1 | 3 |
| COCC(=O)C1C(=O)c2ccc(S(=O)(=O)c3ccc4c(c3)C(=O)C(C(=O)COC)C4=O)cc2C1=O (stereo not shown) [Example 377, 2-(2-methoxyacetyl)-5-{[2-(2-methoxyacetyl)-1,3-dioxo-2,3-dihydro-1H-inden-5-yl]sulfonyl}-2,3-dihydro-1H-indene-1,3-dione] | – | – | – | 26 | 41 |
| O=C(c1ccc2c(c1)C(=O)C(C(=O)C1CCC1)C2=O)c1ccc2c(c1)C(=O)C(C(=O)C1CCC1)C2=O (stereo not shown) [Example 299, 2-cyclobutanecarbonyl-5-(2-cyclobutanecarbonyl-1,3-dioxo-2,3-dihydro-1H-indene-5-carbonyl)-2,3-dihydro-1H-indene-1,3-dione] | – | – | – | 32 | 56 |
| O=C(NC1CCC1)C1C(=O)c2ccc(Oc3ccc4c(c3)C(=O)C(C(=O)NC3CCC3)C4=O)cc2C1=O (stereo not shown) [Example 389, N-cyclobutyl-5-{[2-(cyclobutylcarbamoyl)-1,3-dioxo-2,3-dihydro-1H-inden-5-yl]oxy}-1,3-dioxo-2,3-dihydro-1H-indene-2-carboxamide] | – | – | – | 31 | 80 |
| O=C1CC(=O)c2cc(C(c3ccc4c(c3)C(=O)CC4=O)(C(F)(F)F)C(F)(F)F)ccc21 [Example 13, 5-(2,2,2-trifluoro-1-(5-indan-1,3-dionyl)-1-trifluoromethyl-ethyl)-indan-1,3-dione] | – | 16 | 74 | – | – |
| CC(C)(C)OC(=O)NCCC(=O)C1C(=O)c2ccc(C(=O)c3ccc4c(c3)C(=O)C(C(=O)CCNC(=O)OC(C)(C)C)C4=O)cc2C1=O (stereo not shown) [Example 163, tert-butyl N-(3-{5-[2-(3-{[(tert-butoxy)carbonyl]amino}propanoyl)-1,3-dioxo-2,3-dihydro-1H-indene-5-carbonyl]-1,3-dioxo-2,3-dihydro-1H-inden-2-yl}-3-oxopropyl)carbamate] | 13 | 87 | 93 | – | – |
| O=C(Cc1ccccc1)C1C(=O)c2ccc(S(=O)(=O)c3ccc4c(c3)C(=O)C(C(=O)Cc3ccccc3)C4=O)cc2C1=O (stereo not shown) [Example 137, 5-{[1,3-dioxo-2-(2-phenylacetyl)-2,3-dihydro-1H-inden-5-yl]sulfonyl}-2-(2-phenylacetyl)-2,3-dihydro-1H-indene-1,3-dione] | 6 | 80 | 85 | – | – |
| CC(C)(C)OC(=O)N1CCC[C@H]1CC(=O)C1C(=O)c2ccc(C(=O)c3ccc4c(c3)C(=O)C(C(=O)C[C@@H]3CCCN3C(=O)OC(C)(C)C)C4=O)cc2C1=O (stereo in doubt) [Example 112, tert-butyl (2S)-2-{2-[5-(2-{2-[(2S)-1-[(tert-butoxy)carbonyl]pyrrolidin-2-yl]acetyl}-1,3-dioxo-2,3-dihydro-1H-indene-5-carbonyl)-1,3-dioxo-2,3-dihydro-1H-inden-2-yl]-2-oxoethyl}pyrrolidine-1-carboxylate] | 1.2 | 84 | 89 | – | – |
| O=C(c1ccc2c(c1)C(=O)C(C(=O)C1CCCCC1)C2=O)c1ccc2c(c1)C(=O)C(C(=O)C1CCCCC1)C2=O (stereo not shown) [Example 287, 2-cyclohexanecarbonyl-5-(2-cyclohexanecarbonyl-1,3-dioxo-2,3-dihydro-1H-indene-5-carbonyl)-2,3-dihydro-1H-indene-1,3-dione] | 3 | – | – | 5 | 31 |
| C[C@@H]1CC[C@@H](C(=O)C2C(=O)c3ccc(C(=O)c4ccc5c(c4)C(=O)C(C(=O)[C@@H]4CC[C@@H](C)N4C(=O)OC(C)(C)C)C5=O)cc3C2=O)N1C(=O)OC(C)(C)C (stereo partly drawn) [Example 120B, tert-butyl (2S,5R)-2-(5-{2-[(2S,5R)-1-[(tert-butoxy)carbonyl]-5-methylpyrrolidine-2-carbonyl]-1,3-dioxo-2,3-dihydro-1H-indene-5-carbonyl}-1,3-dioxo-2,3-dihydro-1H-indene-2-carbonyl)-5-methylpyrrolidine-1-carboxylate] | – | 75 | 86 | – | – |

Further lines, with some results ahead:

| IC50 [µM] | SMILES | inhibition at 5 µM [%] | inhibition at 10 µM [%] | inhibition at 1 µM [%] | inhibition at 3 µM [%] |
| --- | --- | --- | --- | --- | --- |
| 5.1 | O=C1c2ccc(S(=O)(=O)c3ccc4c(c3)C(=O)C(C(=O)C3CCN(C(=O)OCc5ccccc5)C3)C4=O)cc2C(=O)C1C(=O)C1CCN(C(=O)OCc2ccccc2)C1 (stereo not shown) [Example 160, benzyl 3-{5-[(2-{1-[(benzyloxy)carbonyl]pyrrolidine-3-carbonyl}-1,3-dioxo-2,3-dihydro-1H-inden-5-yl)sulfonyl]-1,3-dioxo-2,3-dihydro-1H-indene-2-carbonyl}pyrrolidine-1-carboxylate] | 75 | 88 | – | – |
| 0.29 | COCCOCCC(=O)C1C(=O)c2ccc(C(=O)c3ccc4c(c3)C(=O)C(C(=O)CCOCCOC)C4=O)cc2C1=O (stereo not shown) [Example 382, 2-[3-(2-methoxyethoxy)propanoyl]-5-{2-[3-(2-methoxyethoxy)propanoyl]-1,3-dioxo-2,3-dihydro-1H-indene-5-carbonyl}-2,3-dihydro-1H-indene-1,3-dione] | – | – | 20 | 70 |
| 4 | COC(=O)[C@@H]1C[C@H]1C(=O)C1C(=O)c2ccc(S(=O)(=O)c3ccc4c(c3)C(=O)C(C(=O)[C@@H]3C[C@H]3C(=O)OC)C4=O)cc2C1=O (stereo partly drawn) [Example 218, methyl (1R,2R)-2-[5-({2-[(1R,2R)-2-(methoxycarbonyl)cyclopropanecarbonyl]-1,3-dioxo-2,3-dihydro-1H-inden-5-yl}sulfonyl)-1,3-dioxo-2,3-dihydro-1H-indene-2-carbonyl]cyclopropane-1-carboxylate] | 67 | 92 | – | – |
| 2.5 | Cc1ccccc1NC(=O)C1C(=O)c2ccc(S(=O)(=O)c3ccc4c(c3)C(=O)C(C(=O)Nc3ccccc3C)C4=O)cc2C1=O (stereo not shown) [Example 85, N-(2-methylphenyl)-5-({2-[(2-methylphenyl)carbamoyl]-1,3-dioxo-2,3-dihydro-1H-inden-5-yl}sulfonyl)-1,3-dioxo-2,3-dihydro-1H-indene-2-carboxamide] | – | – | – | – |
| 7.8 | CO[C@H](C)[C@H](N)C(=O)C1C(=O)c2ccc(C(=O)c3ccc4c(c3)C(=O)C(C(=O)[C@@H](N)[C@@H](C)OC)C4=O)cc2C1=O (stereo partly drawn) [Example 128, 2-[(2S,3R)-2-amino-3-methoxybutanoyl]-5-{2-[(2S,3R)-2-amino-3-methoxybutanoyl]-1,3-dioxo-2,3-dihydro-1H-indene-5-carbonyl}-2,3-dihydro-1H-indene-1,3-dione] | 51 | 87 | – | – |
